According to patent US12648921B2, “Capric acid and myristic acid compositions for treating conditions” (The Cleveland Clinic Foundation, priority 2016, dated 2026):

System: house dust mite (D. Pteronyssinus) extract (HDME) sensitized and challenged mice
Assay: Airway hyper-reactivity and lung mechanics in house dust mite extract sensitized mice fed purified MCF diets
Format: in vivo
Conditions: mice fed purified MCF diet, 100 mg/day (4 g/kg body weight); for overall airway constriction (Rrs) induced by increasing dose of methacholine: FIG. 1, from six weeks before HDME sensitization; for ability of the lungs to stretch (Crs, lung compliance) in response to increasing dose of methacholine: FIG. 2; for stiffness of the lungs (Ers) in response to increasing dose of methacholine: FIG. 3; for amount of forcefully exhaled air (FEV) in response to increasing dose of methacholine: FIG. 4
Protocol: Mice were fed with standard, coconut oil or MCF supplemented diets starting six weeks before allergen sensitization. Isofluorane anesthetized mice received 100 ug house dust mite (D. Pteronyssinus) extract (HDME) (Greer Labs, NC) in […] by nasal aspiration. Five days later mice were challenged daily with 10 ug HDME for 5 days. Three days, after the last HDME exposure, airway hyper-reactivity is measured and lungs collected for analysis. The diets were 15 kcal % fat at a dose of 21 g coconut oil or purified MCF per kg diet. Based on the daily food intake of 4.75 g/day/25 g mouse, each mouse consumes 100 mg of coconut oil or MCF per day. The results of this examples are shown in FIGS. 1-4, which show the results with the mice treated with the various fatty acids, which are present mainly as triglycerides in coconut oil.

**Q.** Which “overall airway constriction (Rrs) induced by increasing dose of methacholine” value does the source give for CCCCCCCCCCCCCC(=O)O [C14, myristic acid] here?
**A.** Its value is “inhibited”.

**Q.** What about the “ability of the lungs to stretch (Crs, lung compliance) in response to increasing dose of methacholine” value of the same molecule?
**A.** Its value is “improved”.

**Q.** What about the “stiffness of the lungs (Ers) in response to increasing dose of methacholine” value of the same molecule?
**A.** Its value is “decreased”.

**Q.** And the “amount of forcefully exhaled air (FEV) in response to increasing dose of methacholine” value?
**A.** Its value is “increased”.

**Q.** What does the source list for CCCCCCCCCC(=O)O [C10, capric acid]?
**A.** overall airway constriction (Rrs) induced by increasing dose of methacholine: inhibited; ability of the lungs to stretch (Crs, lung compliance) in response to increasing dose of methacholine: improved; stiffness of the lungs (Ers) in response to increasing dose of methacholine: decreased; amount of forcefully exhaled air (FEV) in response to increasing dose of methacholine: increased
